A short description of data set [1]: Acute toxicity study in animals (oral LD50). Conditions: mouse, in vivo, male ICR mice, intragastric administration, observed 14 days, hydrochloride salts. The source says:
(§1) Male ICR mice weighed 23±2 g, clean grade, were selected. The route of administration was intragastric (ig) administration, which is consistent with the intended oral route for clinical use.
(§2) Mice were randomly divided into 8 groups by weight: the blank control group, Example 1 group, Example 5 group, Example 11 group, Example 12 group, Example 13 group, Example 14 group and control group. Among these, the control group received amino-combretastatin serinamide hydrochloride as the control (hereinafter referred to as control).
(§3) Preparation of the compounds used in the example groups: The compounds obtained in Example 1, Example 3. Example 4. Example 5. Example 6. Example 7. Example 8. Example 9. Example 10. Example 11. Example 12, Example 13 and Example 14 were prepared into hydrochloride salts according to the method disclosed in Example 2.
(§4) Pre-treatment: […] were deprived of food but not water for 12 h before the study. and randomized into groups of 10 by body weight. The treatment groups were intragastrically administered once at 0.25 mL/10 g body weight, and the water control group received an equivalent amount of distilled water through intragastric administration. The LD100 value (the amount for 100% death), LD0 (the amount for 0 death) and the corresponding range r value between the dose groups were calculated, and LD50 was determined.
(§5) Study procedures: 160 mice were randomized into 8 groups of 20 mice by body weight. After deprivation of food but not water for 12 h before the study, each group was intragastrically given the compound once at 0.3 mL/10 g body weight. Since no death was observed after 12 h, the second dose was given. The control group received equivalent volumes of water. The daily dose of each group was calculated; the control group received equal volumes of water and was subjected to an acute toxicity study for observation and the body weight of the mice was recorded daily for 14 days.

Data set [2] deals with non-small cell lung cancer cells A549. Description: Efficacy study in nude mouse with xenograft tumor, A549. The format is in vivo, human. The following applies: BALB/cA-nude mice, subcutaneous xenograft, 50 mg/kg intragastric once daily for 21 days, dosed as hydrochloride. Here is the method: (§6) BALB/cA-nude mice aged 6 to 7 weeks were purchased from Shanghai Slac Laboratory Animal Co., Ltd. The nude mice were subcutaneously grafted with human liver cancer cells Bel-7402, colon cancer cells HT-29, gastric cancer cells SGC-7901 or non-small cell lung cancer cells A549. After the tumor grew to 100 to 250 mm^3, the animals were randomized (d0). The tumor volumes and body weights were measured twice or thrice a week, and the data were recorded. Tumor volume (V) was calculated as follows:
(§7) [formula] • wherein a and b represent length and width, respectively; T and C are the tumor volumes at the end of study; T0 and C0 are the tumor volumes at the start of study.
(§8) All samples were diluted to the desired concentration with 50% PEG400 in distilled water. The regimen was once daily for 21 days at 50 mg/kg mouse body weight through intragastric administration, and 50 mg/kg for the control. The compounds obtained in Examples 1, 3, 4, 5, 6, 7, 8, 9, 10, 11, 12, 13 and 14 and the control were prepared into corresponding hydrochloride as the dosing compounds according to the method disclosed in Example 2 to investigate their efficacy on human liver cancer cell Bel-7402, colon cancer cell HT-29, gastric cancer cell SGC-7901 or non-small cell lung cancer cell A549 xenograft tumors in nude mice and to compare the compounds with the control (prepared as in Example 16).
(In general: Xenograft models place foreign cells or tissue in a host animal.)

The subject of data set [3] is gastric cancer cells SGC-7901. Description: Efficacy study in nude mouse with xenograft tumor, SGC-7901. The format is in vivo, human. The following applies: BALB/cA-nude mice, subcutaneous xenograft, 50 mg/kg intragastric once daily for 21 days, dosed as hydrochloride. As for the experimental part: as §6, §7, §8
A further data set concerns colon cancer cells HT-29. The data set can be described thus: Efficacy study in nude mouse with xenograft tumor, HT-29. Type of data set: in vivo, human. Conditions: BALB/cA-nude mice, subcutaneous xenograft, 50 mg/kg intragastric once daily for 21 days, dosed as hydrochloride. Here is the method: as §6, §7, §8
The test system of the next data set is Male ICR mice. The data set can be described thus: Acute toxicity study in animals (oral LD50). Conditions: mouse, in vivo.
Source text: as §1, §2, §3, §4, §5

For data set [4], the system named is human liver cancer cells Bel-7402. Description: Efficacy study in nude mouse with xenograft tumor, Bel-7402. The format is in vivo. Conditions: BALB/cA-nude mice, subcutaneous xenograft, 50 mg/kg intragastric once daily for 21 days, dosed as hydrochloride. Here is the method: as §6, §7, §8

Counter-ions that a name gives are not always drawn.

Broadly, the LD50 is the dose expected to kill half of the subjects tested. Take `CCOc1ccc(/C=C\c2cc(OC)c(OC)c(OC)c2)cc1NC(=O)CCN(CCO)CCO` [Hydrochloride of Example 11]: the median lethal dose (LD50) at 14 days in data set [1] stood at 1100 mg/kg.
On to `COc1ccc(/C=C\c2cc(OC)c(OC)c(OC)c2)cc1NC(=O)CCN(CCO)CCO` [Hydrochloride of Example 12], for which, in data set [1], the LD50 amounted to 1100 mg/kg.
Still for that read-out and setting: the figure for `CCOc1ccc(/C=C\c2cc(OC)c(OC)c(OC)c2)cc1NC(=O)CCNCC(F)F` [Hydrochloride of Example 13] is 1000 mg/kg.
Regarding `CCOc1ccc(/C=C\c2cc(OC)c(OC)c(OC)c2)cc1NC(=O)CCNCC(OC)OC` [Hydrochloride of Example 14], in data set [1], the LD50 at 14 days stood at 1000 mg/kg.
In the case of “amino-combretastatin serinamide hydrochloride [Control, reference compound]”, in data set [2], the “% tumor inhibition (D21) A549” value is given as 30%. The “% tumor inhibition (D21) SGC-7901” value in data set [3] amounted to 34%. For the same compound, the “% tumor inhibition (D21) HT-29” value with colon cancer cells HT-29 is on record as 42%. For the same compound, the LD50 in the data set with Male ICR mice came out at 200 mg/kg. Moreover, the “% tumor inhibition (D21) Bel-7402” value in data set [4] turned out to be 39%.

For the origin of these results see patent US20250074869A1, “AMINO-COMBRETASTATIN DERIVATIVE AND USE THEREOF” (priority 2020, published 2025).
